Experimental data as given in patent publication EP4506005A1, “JAK-INHIBITOR FOR THE TREATMENT OF TEN, SJS AND SJS/TEN OVERLAP” (Max-Planck-Gesellschaft zur Förderung der Wissenschaften …, priority 2023, dated 2025).
“Also recorded” adds a separate entry of the source.

What was measured:
[1] = cited from earlier work
primary keratinocytes = test: Live-cell imaging co-culture assay of patient-derived keratinocytes with matched PBMCs
From the text: Concurrently, patient-matched PBMCs were isolated and activated using CD3/28. After five days, the keratinocytes were fluorescently labeled and co-cultured with activated or resting PBMCs. A fluorescent DNA-binding dye was introduced to identify cells with compromised membrane integrity, in order to visualize, track and quantify the cytotoxic action of activated PBMCs towards keratinocytes using live-cell imaging.
PBMCs were isolated using Ficol according to standard protocol. Cells were frozen in liquid nitrogen until further usage.
Patient PBMCs (200'000 / well / 200 µl) were stimulated in U-shape 96-well plates in the presence or absence of CD3/28 (Gibco Dynabeads, #11161D) at a ratio of 1:1, in X-VIVO 15 (Lonza, #881026) for 5 days at 37 °C / 5% CO2. On day 4 of PBMC stimulation, hair-follicle derived keratinocytes from the same patient were plated on Collagen-I coated 96-well plates at a density of 5'000 - 10000 / well (depending on the proliferation rate, patient specific). On day 5 of PBMC stimulation, keratinocytes were fluorescently labeled (Celltracker Red; Invitrogen #C34552) according to the manufacturer's recommendation. Activated or non-activated ("resting") PBMCs were then added to the keratinocytes at a ratio of 1:1, after magnetic removal of CD3/28 beads where necessary. Tofacitinib (CST, #14703) or control (DMSO) was added in the indicated concentration as well as Celltox Green (Promega, G8731, 1:8000 final dilution) to reach a final volume of 200 µl per well. Every 2 hours images were acquired using a live cell analysis system (Incucyte Sx3, Sartorius) for 72 hours at 37 °C / 5% CO2. Quantification of dead keratinocytes (Celltox Green+ / Celltracker Red+) was performed using the proprietary analysis software (Incucyte, Sartorius).

mouse model of TEN = test: Smac mimetic TEN mouse model
DRESS = details: earlier report; cited from earlier work

C[C@@H]1CCN(C(=O)CC#N)C[C@@H]1N(C)c1ncnc2[nH]ccc12 [Tofacitinib]
peak plasma concentrations achieved (time after administration) [1]: 30 to 60 min
cell death (primary keratinocytes; Tofacitinib in combination with resting (non-activated) PBMCs): no indications of increased cell death
keratinocyte cytotoxicity (primary keratinocytes; co-culture of primary keratinocytes with CD3/28 activated PBMCs from the same TEN patient, ratio 1:1, Tofacitinib 50 or 5 (nmol/nM), imaging every 2h for 72 hours, Celltox Green positive keratinocytes): reduced keratinocyte-directed cytotoxicity; also recorded: able to dampen the keratinocyte mediated cytotoxicity; also recorded: ameliorates T-cell mediated keratinocyte cytotoxicity; also recorded: dose-dependent inhibition of keratinocyte cytotoxicity
keratinocyte cell death (primary keratinocytes; keratinocytes exposed to Tofacitinib alone): did not induce keratinocyte cell death
clinical and histological disease severity (mouse model of TEN; oral administration): ameliorated clinical and histological disease severity
macroscopic disease severity (clinical assessment score: Nikolsky sign, edema, rubor) (mouse model of TEN; oral gavage twice daily, Tofacitinib 30 mg/kg or Baricitinib 10 mg/kg, day 1 and 3 after s.c. smac mimetic injection): markedly reduced macroscopic disease severity
therapeutic intervention in DRESS (DRESS): successful
